In assay [1] the target is T1, PRMT5 (Homo sapiens, UniProt O14744).
T1 construct: purchased Viva (custom protein)
As to the kind of experiment: PRMT5 biochemical IC50 assay with no cofactor. The following applies: PRMT5, no cofactor. The text has this:
Table 1 indicates IC50 values (μM) against PRMT5 for exemplary compounds in the presence of SAM as cofactor, with no cofactor, and with MTA as cofactor, respectively (columns 4-6). […] Ki values can be calculated from the IC50 values as described in the Examples section. As detailed in the Examples section, for the assay performed in the presence of SAM, IC50=Ki×1.5 (Ki=IC50/1.5).

The subject of assay [2] is HAP1 MTAP-intact cell line. As to the kind of experiment: SDMA in-cell western assay, HAP1 MTAP-intact. To be noted: HAP1 MTAP-intact, read-out: MTAP HAP1 intact IC50. The assay is classed as cell-based. Summed up: (§1)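 Readout: in-cell western detection of SDMA. Cells: HAP1 expressing endogenous MTAP and an MTAP-null HAP1 counterpart. Output: IC50.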
Assay [3] addresses T1, PRMT5. Put plainly: PRMT5 biochemical IC50 assay with SAM as cofactor. The following applies: PRMT5, SAM as cofactor; read-out: SAM IC50.
Assay [4] has as its system HAP1 MTAP-deleted cell line. As to the kind of experiment: Viability assay, MTAP-deleted cell line. It is filed as cell-based. The following applies: read-out: HAP1 MTAP deleted viability. The text has this: Table 1 additionally indicates IC50 values in a viability assay for the MTAP-deleted cell line (column 10), indicating the effect of treatment with compound on cell survival.

Assay [5] deals with T1, PRMT5. As to the kind of experiment: PRMT5 biochemical IC50 assay with MTA as cofactor. To be noted: PRMT5, MTA as cofactor; read-out: MTA IC50.
In assay [6] the test system is HAP1 MTAP-deleted cell line. Put plainly: SDMA in-cell western assay, HAP1 MTAP-deleted. The assay is classed as cell-based. The following applies: for pIC50: HAP1 MTAP-deleted. Put shortly: as §1
Setting [7] is: Homo sapiens, HAP1, SDMA in-cell western.
Where [8] appears, read: Homo sapiens, HAP1, viability assay, MTAP-deleted cell line.
Where [9] appears, read: Homo sapiens, HAP1, SDMA in-cell western, read-out: HAP1 MTAP deleted IC50.
[10] abbreviates: IC50 ratio HAP1 MTAP-intact vs HAP1 MTAP-deleted, SDMA in-cell western.
The mark [11] stands for this setting: Homo sapiens, HAP1, viability assay, HAP1 MTAP-deleted.
Setting [12] is: IC50 ratio HAP1 MTAP-intact / HAP1 MTAP-deleted, SDMA in-cell western.
Setting [13] is: read-out: No Cofactor/ rel IC50.
Where [14] appears, read: Homo sapiens, HAP1, SDMA in-cell western, read-out: HAP 1 MTAP deleted IC50.

Molecules are shown by their SMILES. pIC50: −log10 of the molar value. Where two headings read alike, the source gives them in different places.

T1 sequence (O14744 whole entry): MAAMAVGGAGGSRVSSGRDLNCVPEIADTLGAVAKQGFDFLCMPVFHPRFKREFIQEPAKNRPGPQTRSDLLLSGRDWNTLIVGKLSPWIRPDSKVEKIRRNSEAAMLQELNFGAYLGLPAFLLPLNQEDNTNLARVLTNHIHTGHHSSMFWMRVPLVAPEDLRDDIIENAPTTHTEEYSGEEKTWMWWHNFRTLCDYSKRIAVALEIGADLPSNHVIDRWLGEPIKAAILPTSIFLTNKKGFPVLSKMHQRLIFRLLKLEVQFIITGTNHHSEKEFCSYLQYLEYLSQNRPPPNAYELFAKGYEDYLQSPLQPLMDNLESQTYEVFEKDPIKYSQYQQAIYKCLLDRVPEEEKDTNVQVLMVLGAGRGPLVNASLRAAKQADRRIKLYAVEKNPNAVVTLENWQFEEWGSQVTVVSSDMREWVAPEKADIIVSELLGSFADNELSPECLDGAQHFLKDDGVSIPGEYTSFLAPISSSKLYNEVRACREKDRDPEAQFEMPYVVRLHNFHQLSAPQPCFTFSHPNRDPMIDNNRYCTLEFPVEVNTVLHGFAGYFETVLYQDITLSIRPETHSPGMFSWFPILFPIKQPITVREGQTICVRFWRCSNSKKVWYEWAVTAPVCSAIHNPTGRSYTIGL
T1 sequence (Q9BQA1 whole entry partner): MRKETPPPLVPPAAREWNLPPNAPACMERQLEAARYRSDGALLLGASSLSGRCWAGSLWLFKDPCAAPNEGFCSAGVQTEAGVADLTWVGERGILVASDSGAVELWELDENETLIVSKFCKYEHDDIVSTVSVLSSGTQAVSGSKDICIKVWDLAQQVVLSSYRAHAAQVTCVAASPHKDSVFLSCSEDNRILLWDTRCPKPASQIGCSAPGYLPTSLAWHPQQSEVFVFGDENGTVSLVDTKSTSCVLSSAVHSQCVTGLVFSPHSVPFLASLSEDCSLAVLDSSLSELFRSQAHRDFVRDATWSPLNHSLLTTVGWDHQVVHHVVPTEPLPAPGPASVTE

On to `CCc1cc(NC(=O)C(=O)N2C[C@@H](C)CC[C@@H]2c2ccc3sc(C4CCN(C5COC5)CC4)nc3c2)cnc1N` [Compound 1224, N-(6-amino-5-ethylpyridin-3-yl)-2-((2R,53)-5-methyl-2-(2-(1-(oxetan-3-yl)piperidin-4-yl)benzo[d]thiazol-5-yl)piperidin-1-yl)-2-oxoacetamide], for which the pIC50 is greater than 7.30 in assay [1] (read-out: No Cofactor/rel IC50); greater than 7.00 in assay [2] (setting [7]); 6.30 to 7.30 in assay [3]; greater than 6.00 in assay [4] (setting [8]); greater than 7.30 in assay [5]; greater than 7.00 in assay [6] (setting [9]). Further, the MTAP intact/deleted ratio result in assay [6] (setting [10]) is recorded as “A (an IC50 ratio greater than or equal to 10 fold)”.
Take `Cc1cc(NC(=O)C(=O)N2C[C@H](C)CC[C@H]2[C@H]2CC3(C[C@H](C(N)=O)C3)C2)cnc1N` (mixture of isomers) [Compound 812, 6-(1-(2-((6-amino-5-methylpyridin-3-yl)amino)-2-oxoacetyl)-5-methylpiperidin-2-yl)spiro[3.3]heptane-2-carboxamide]: the pIC50 in assay [1] (read-out: No Cofactor/rel IC50) was less than 6.30; in assay [2] (setting [7]), less than 6.00; in assay [3], less than 6.30; in assay [4] (setting [11]) it was less than 5.00; in assay [5] it was 6.30 to 7.30; in assay [6] (setting [9]), less than 6.00. Further, the MTAP intact/deleted ratio entry in assay [6] (setting [12]) is listed as “C (an IC50 ratio of less than 3 fold)”.
Consider `CCc1cc(NC(=O)C(=O)N2C[C@H](C)CC[C@H]2c2ccc(NC)nc2)cnc1N` (single isomer, unassigned) [Compound 865], for which the pIC50 in assay [1] (read-out: No Cofactor/rel IC50) is greater than 7.30; in assay [2] (setting [7]), 6.00 to 7.00; in assay [3], 6.30 to 7.30; in assay [4] (setting [11]), greater than 6.00; in assay [5], greater than 7.30; in assay [6] (setting [9]), greater than 7.00. In addition, the MTAP intact/deleted ratio entry in assay [6] (setting [12]) is recorded as “A (an IC50 ratio greater than or equal to 10 fold)”.
For the compound `NC(=O)c1cncc(NC(=O)C(=O)N2C[C@@H](CC(F)(F)F)CC[C@@H]2c2ccccc2)c1` (racemic) [Compound 342, 5-[[2-Oxo-2-[(2S,5S)-2-phenyl-5-(2,2,2-trifluoroethyl)-1-piperidyl]acetyl]amino]pyridine-3-carboxamide], the pIC50 was less than 6.30 in assay [1] (read-out: No Cofactor/rel IC50); less than 6.00 in assay [2] (setting [7]); 6.30 to 7.30 in assay [3]; less than 5.00 in assay [4] (setting [8]); 6.30 to 7.30 in assay [5]; 6.00 to 7.00 in assay [6] (setting [9]). Also, the MTAP intact/deleted ratio entry in assay [6] (setting [12]) is “A (an IC50 ratio greater than or equal to 10 fold)”.
On to `CO[C@@H]1C[C@@H](c2ccc3scnc3c2)N(C(=O)C(=O)Nc2cnc(N)c(C3CC3)c2)C[C@@H]1C` (single isomer, unassigned) [Compound 1241], for which the pIC50 in assay [1] (setting [13]) was less than 6.30; in assay [2] (setting [7]) it was less than 6.00; in assay [3] it was less than 6.30; in assay [4] (Homo sapiens, HAP1, viability, HAP1 MTAP-deleted cell line), 5.00 to 6.00; in assay [5], less than 6.30; in assay [6] (setting [14]) it was less than 6.00.
Regarding `C[C@@H]1CC[C@@H](C2CCCC2)N(C(=O)C(=O)Nc2cncc(C(N)=O)c2)C1` (racemic) [Compound 172, 5-(2-(2-cyclopentyl-5-methylpiperidin-1-yl)-2-oxoacetamido)nicotinamide], the pIC50 is 6.30 to 7.30 in assay [1] (setting [13]); less than 6.00 in assay [2] (setting [7]); 6.30 to 7.30 in assay [3]; less than 5.00 in assay [4] (setting [8]); greater than 7.30 in assay [5]; 6.00 to 7.00 in assay [6] (setting [14]). For the same compound, the “MTAP intact/deleted ratio” value in assay [6] (setting [12]) is reported as “A (an IC50 ratio greater than or equal to 10 fold)”.
Consider `C[C@@H]1CCC[C@H]2CN(C(=O)C(=O)Nc3cncc(C(N)=O)c3)CC[C@H]21` (racemic) [Compound 515, 5-(2-(5-methyloctahydroisoquinolin-2(1H)-yl)-2-oxoacetamido)nicotinamide], for which the pIC50 in assay [1] (read-out: No Cofactor/rel IC50) was less than 6.30; in assay [2] (setting [7]), less than 6.00; in assay [3], 6.30 to 7.30; in assay [4] (setting [8]), less than 5.00; in assay [5], 6.30 to 7.30; in assay [6] (setting [9]) it was less than 6.00. In assay [6] (setting [12]), the MTAP intact/deleted ratio entry is “B (an IC50 ratio greater than or equal to 3 fold but lower than 10 fold)”.
On to `Cc1cc(NC(=O)C(=O)N2C[C@@H](C)CC[C@@H]2c2ccc3snc(C)c3c2)cnc1N` (single isomer, unassigned) [Compound 1166], for which the pIC50 in assay [1] (read-out: No Cofactor/rel IC50) was greater than 7.30; in assay [2] (setting [7]) it was greater than 7.00; in assay [3], 6.30 to 7.30; in assay [4] (setting [8]), greater than 6.00; in assay [5], greater than 7.30; in assay [6] (setting [9]), greater than 7.00. Further, the MTAP intact/deleted ratio result in assay [6] (setting [10]) was “B (an IC50 ratio greater than or equal to 3 fold but lower than 10 fold)”.
With `Cc1cc(NC(=O)C(=O)N2C[C@H](C)CC[C@H]2c2ccncc2)cnc1N` (single isomer, unassigned) [Compound 592], the pIC50 in assay [1] (read-out: No Cofactor/rel IC50) was greater than 7.30; in assay [2] (setting [7]), 6.00 to 7.00; in assay [3], 6.30 to 7.30; in assay [4] (Homo sapiens, HAP1, viability IC50, MTAP-deleted cell line), 5.00 to 6.00; in assay [5], 6.30 to 7.30; in assay [6] (setting [14]), greater than 7.00. The MTAP intact/deleted ratio result in assay [6] (setting [12]) is listed as “A (an IC50 ratio greater than or equal to 10 fold)”.
Turning to `Cc1cncc(NC(=O)C(=O)N2C[C@H](C)CC[C@H]2c2cccc(N)c2)c1` (racemic) [Compound 91, 2-[(2R,5S)-2-(3-aminophenyl)-5-methyl-1-piperidyl]-N-(5-methyl-3-pyridyl)-2-oxo-acetamide], the pIC50 in assay [1] (setting [13]) was less than 6.30; in assay [2] (setting [7]), less than 6.00; in assay [3], less than 6.30; in assay [4] (setting [8]), less than 5.00; in assay [5] it was 6.30 to 7.30; in assay [6] (setting [14]), less than 6.00. For the same compound, the “MTAP intact/deleted ratio” value in assay [6] (setting [12]) was “C (an IC50 ratio of less than 3 fold)”.
As to `COc1ncc(NC(=O)C(=O)N2C[C@H](C)CC[C@H]2c2ccc(C)nc2)cc1C(N)=O` (single isomer, unassigned) [Compound 754], the pIC50 in assay [1] (read-out: No Cofactor/rel IC50) was 6.30 to 7.30; in assay [2] (setting [7]), less than 6.00; in assay [3], 6.30 to 7.30; in assay [4] (setting [11]) it was 5.00 to 6.00; in assay [5] it was greater than 7.30; in assay [6] (setting [9]), greater than 7.00. Also, the MTAP intact/deleted ratio result in assay [6] (setting [12]) was “A (an IC50 ratio greater than or equal to 10 fold)”.
As to `Cc1cc(NC(=O)C(=O)N2CCCC[C@@H]2C2CCCCC2)cnc1N` (single isomer, unassigned) [Compound 42], the pIC50 in assay [1] (setting [13]) was 6.30 to 7.30; in assay [2] (setting [7]), less than 6.00; in assay [3], 6.30 to 7.30; in assay [4] (setting [8]), 5.00 to 6.00; in assay [5] it was greater than 7.30; in assay [6] (setting [14]), greater than 7.00. For the same compound, the “MTAP intact/deleted ratio” value in assay [6] (setting [12]) is recorded as “A (an IC50 ratio greater than or equal to 10 fold)”.
Regarding `COc1ncc(NC(=O)C(=O)N2C[C@H](C)CC[C@H]2c2ccn(-c3cc[nH]n3)n2)cc1C(N)=O` (single isomer, unassigned) [Compound 894], the pIC50 in assay [1] (read-out: No Cofactor/rel IC50) was 6.30 to 7.30; in assay [2] (setting [7]), less than 6.00; in assay [3], 6.30 to 7.30; in assay [4] (setting [8]) it was 5.00 to 6.00; in assay [5], greater than 7.30; in assay [6] (setting [14]), greater than 7.00. Further, the MTAP intact/deleted ratio entry in assay [6] (setting [12]) is “A (an IC50 ratio greater than or equal to 10 fold)”.
In the case of `C[C@@H]1CC[C@@H](c2ccc(Cn3cncn3)cc2)N(C(=O)C(=O)Nc2cncc(C(N)=O)c2)C1` (racemic) [Compound 252, rac-5-{2-[(2R,5S)-5-Methyl-2-{4-[(1H-1,2,4-triazol-1-yl)methyl]phenyl}piperidin-1-yl]-2-oxoacetamido}pyridine-3-carboxamide], the pIC50 in assay [1] (read-out: No Cofactor/rel IC50) is 6.30 to 7.30; in assay [2] (setting [7]) it was less than 6.00; in assay [3], 6.30 to 7.30; in assay [4] (setting [8]) it was less than 5.00; in assay [5], greater than 7.30; in assay [6] (setting [9]), 6.00 to 7.00. In addition, the MTAP intact/deleted ratio result in assay [6] (setting [12]) was “A (an IC50 ratio greater than or equal to 10 fold)”.
With `COc1ncc(NC(=O)C(=O)N2CCCCC2c2ccccc2)cc1C(N)=O` (single isomer, unassigned) [Compound 202, 2-methoxy-5-(2-oxo-2-(2-phenylpiperidin-1-yl)acetamido)nicotinamide], the pIC50 in assay [1] (read-out: No Cofactor/rel IC50) is 6.30 to 7.30; in assay [2] (SDMA in-cell western), less than 6.00; in assay [3] it was 6.30 to 7.30; in assay [4] (viability assay, MTAP-deleted cell line) it was less than 5.00; in assay [5], greater than 7.30; in assay [6] (SDMA in-cell western, read-out: HAP1 MTAP deleted IC50), 6.00 to 7.00. Moreover, the MTAP intact/deleted ratio result in assay [6] (setting [12]) is “A (an IC50 ratio greater than or equal to 10 fold)”.

These data come from US11999727B2 (Tango Therapeutics, Inc., priority 2020, dated 2024).
